Assay results taken from the NIST ThermoML archive (doi:10.1016/j.jct.2010.02.009).

Key:
[1] = refractive index (other wavelength) (dimensionless); xn = mol fraction of the nth substance listed; conditions: 101 kPa, Liquid, Wavelength=632.8 nm, Standard Abbe refractometry, x2 = 0
[2] = refractive index (other wavelength) (dimensionless); conditions: 101 kPa, Liquid, Wavelength=632.8 nm, Standard Abbe refractometry

CCCCCCCCC [nonane] + N#Cc1ccccc1
[1]
Conditions | refractive index
278.08 K | 1.4111
279.19 K | 1.4106
280.4 K | 1.4101
281.48 K | 1.4095
282.59 K | 1.409
283.65 K | 1.4085
284.91 K | 1.4079

CCCCCCCCC [nonane]
[2]
Conditions | refractive index
278.08 K | 1.4111
279.19 K | 1.4106
280.4 K | 1.4101
281.48 K | 1.4095
282.59 K | 1.409
283.65 K | 1.4085
284.91 K | 1.4079

N#Cc1ccccc1 [benzonitrile]
[2]
Conditions | refractive index
278.24 K | 1.5324
279.25 K | 1.5319
281.33 K | 1.5308
282.96 K | 1.5301
284.3 K | 1.5294
285.43 K | 1.5288
